# Laboratory results: patent US11352322B2, “Cyclopropyl-amide compounds as dual LSD1/HDAC inhibitors” (Jubilant Epicore LLC, priority 2016, dated 2022)
# Counter-ions that a name gives are not always drawn. Like-named read-outs stand apart in the source and are kept apart here.
# Assays:
# [1] = Metabolic stability in liver microsomes, MLM; settings: 1 μM, NADPH
# Procedure: (§1) The microsomal suspension was prepared by adding liver microsomes to 100 mM potassium phosphate buffer (pH7.4) to give a final protein concentration of 0.5 mg/mL. The stock solution of NCE (10 mM in DMSO) was added to the microsomes to provide a final concentration of 1 μM. […] Samples were vortexed and centrifuged at 5,000 rpm for 10 min to remove proteins. Supernatant were analyzed on LC-MS/MS.
# [2] = system: MM1S; assay: Anticancer activity: Alamar Blue assay, MM1S; assay type: cell-based; settings: Homo sapiens, MM1.S, read-out: MM1S EC50
# Procedure: Cells were seeded at 5000 cells/per well in 96-well tissue culture plate and incubated at 37° C./5% CO2. After 16-24 hours, fresh media was added to the wells. Compounds were then (1% DMSO conc.) added to the cells at 10 concentrations ranging from 10-0.0005 uM prepared in 3-fold serial dilutions. Cells were incubated for 68-72 h at 37° C./5% CO2. Alamar Blue™ reagent was added and incubated for 1-3 hours at 37° C./5% CO2. Plates were read on fluorescence reader at 540 nm excitation, 590 nm emission wave lengths.
# [3] = biological target: LSD1 (Homo sapiens (Human), UniProt O60341); assay: TR-FRET Assay for LSD1; settings: read-out: LSD1 IC50
# Procedure: TR-FRET Assay for LSD1 (Perkin Elmer)
# Tranylcypromine (TCP), LSD1 inhibitor was procured from Selleckchem. […] Stop Solution containing 300 μM tranylcypromine in 1× LANCE Detection Buffer was added to the wells and incubated for 5 min at RT. Then, Detection mix containing 2 nM Eu-Ab and 50 nM ULight-Streptavidin in 1× LANCE Detection Buffer was prepared and added to the reaction mix. This mixture was incubated for 1 hour at room temperature.
# [4] = Metabolic stability in liver microsomes, HLM; settings: 1 μM, NADPH
# Procedure: as §1
# [5] = biological target: HDAC6 human recombinant enzyme (Homo sapiens (Human), UniProt Q9UBN7); assay: Histone Deacetylase Assay (BPS Biosciences), HDAC6; assay type: biochemical
# Chain of HDAC6 human recombinant enzyme (Q9UBN7 whole entry): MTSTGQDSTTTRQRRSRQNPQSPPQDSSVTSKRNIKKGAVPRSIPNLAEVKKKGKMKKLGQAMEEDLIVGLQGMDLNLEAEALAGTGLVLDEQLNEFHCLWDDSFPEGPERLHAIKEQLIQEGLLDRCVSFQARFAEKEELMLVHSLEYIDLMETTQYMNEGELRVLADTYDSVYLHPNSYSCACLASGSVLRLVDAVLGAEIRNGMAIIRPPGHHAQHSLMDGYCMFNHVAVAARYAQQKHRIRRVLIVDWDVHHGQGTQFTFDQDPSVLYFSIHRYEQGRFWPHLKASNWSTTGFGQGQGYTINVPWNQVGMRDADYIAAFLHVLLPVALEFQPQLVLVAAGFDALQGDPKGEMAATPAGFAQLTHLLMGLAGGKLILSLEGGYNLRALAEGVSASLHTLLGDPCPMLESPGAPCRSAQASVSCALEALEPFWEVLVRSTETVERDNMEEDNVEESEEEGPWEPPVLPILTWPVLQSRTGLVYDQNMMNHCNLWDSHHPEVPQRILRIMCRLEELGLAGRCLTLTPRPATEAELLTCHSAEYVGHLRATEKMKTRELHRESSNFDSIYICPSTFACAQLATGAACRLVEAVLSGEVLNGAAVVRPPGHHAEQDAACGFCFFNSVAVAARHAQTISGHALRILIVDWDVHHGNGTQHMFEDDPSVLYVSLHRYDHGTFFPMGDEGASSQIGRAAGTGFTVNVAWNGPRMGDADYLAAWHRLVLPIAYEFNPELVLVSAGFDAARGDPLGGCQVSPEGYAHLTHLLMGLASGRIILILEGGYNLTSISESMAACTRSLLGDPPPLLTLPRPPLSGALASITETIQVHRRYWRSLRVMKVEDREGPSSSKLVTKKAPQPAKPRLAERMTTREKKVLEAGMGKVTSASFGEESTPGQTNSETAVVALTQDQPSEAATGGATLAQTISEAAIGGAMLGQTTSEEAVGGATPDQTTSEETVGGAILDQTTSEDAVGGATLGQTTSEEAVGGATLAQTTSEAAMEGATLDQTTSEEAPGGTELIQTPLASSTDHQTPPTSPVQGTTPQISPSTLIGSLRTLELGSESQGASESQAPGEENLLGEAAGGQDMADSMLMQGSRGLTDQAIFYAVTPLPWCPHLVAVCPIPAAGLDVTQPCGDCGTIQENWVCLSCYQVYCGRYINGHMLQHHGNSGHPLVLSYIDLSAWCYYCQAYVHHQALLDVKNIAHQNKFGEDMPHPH
# Text: Histone Deacetylase Assay (BPS Biosciences)
# Histone deacetylase assay was done as per manufacturer's instructions.
EC50 ([2]; MM1S cells) [nM],SMILES,Metabolic stability MLM % remaining in 30 min [1] [%],EC50 [2] [nM],IC50 [3] [nM],Metabolic stability HLM % remaining in 30 min [4] [%],IC50 [5] [nM]
,"O=C(/C=C/c1ccc(CNC2CC2c2ccc(-c3cncnc3)cc2)cc1)NO (stereo not drawn) [Example 7, (E)-N-hydroxy-3-(4-(((2-(4-(pyrimidin-5-yl)phenyl)cyclopropyl)amino)methyl)phenyl)acrylamide TFA Salt]",< 5,48,27,70,
,"O=C(NO)c1ccc(N2CCC(CNC3CC3c3ccc(F)cc3)CC2)cc1 (stereo not drawn) [Example 22, 4-(4-(((2-(4-fluorophenyl)cyclopropyl)amino)methyl)piperidin-1-yl)-N-hydroxybenzamide TFA Salt]",38,44,6400,60,
,"O=C(NO)c1ccc(CNC2CC2c2ccccc2)cc1 (stereo not drawn) [Example 28, N-hydroxy-4-(((2-phenylcyclopropyl)amino)methyl)benzamide TFA Salt]",35,,23,73,
,"Cc1noc(C)c1-c1ccc(C2CC2NCC2CCN(Cc3ccc(C(=O)NO)cc3)CC2)cc1 (stereo not drawn) [Example 37, 4-((4-(((2-(4-(3,5-dimethylisoxazol-4-yl)phenyl)cyclopropyl)amino)methyl)piperidin-1-yl)methyl)-N-hydroxybenzamide TFA salt]",55,1730,43,86,
,"O=C(NO)c1ccc(CN2CCC(CNC3CC3c3ccc(-c4cncnc4)cc3)CC2)cc1 (stereo not drawn) [Example 38, N-hydroxy-4-((4-(((2-(4-(pyrimidin-5-yl)phenyl)cyclopropyl)amino)methyl)piperidin-1-yl)methyl)benzamide TFA Salt]",> 95,3640,53,87,
,"Cc1noc(C)c1-c1ccc(C2CC2NCC2CCN(Cc3ccc(C(=O)NO)cn3)CC2)cc1 (stereo not drawn) [Example 39, 6-((4-(((2-(4-(3,5-dimethylisoxazol-4-yl)phenyl)cyclopropyl)amino)methyl)piperidin-1-yl)methyl)-N-hydroxynicotinamide TFA Salt]",> 95,2970,34,87,
48,"CN(CC1CCN(CCCc2ccc(C(=O)NO)cc2)CC1)C1CC1c1ccccc1 (stereo not drawn) [Example 45, N-hydroxy-4-(3-(4-((methyl (2-phenylcyclopropyl)amino)methyl)piperidin-1-yl)propyl) benzamide TFA Salt]",,,465,,
,"O=C(NO)c1ccc(CCCN2CCC(CNC3CC3c3ccc(F)c(F)c3)CC2)cc1 (stereo not drawn) [Example 50, 4-(3-(4-(((2-(3,4-difluorophenyl)cyclopropyl)amino)methyl)piperidin-1-yl)propyl)-N-hydroxybenzamide TFA Salt]",80,35,29,86,
,"O=C(NO)c1ccc(CCCN2CCC(CNC3CC3c3ccc(C(=O)N4CCOCC4)cc3)CC2)cc1 (stereo not drawn) [Example 53, N-hydroxy-4-(3-(4-(((2-(4-(morpholine-4-carbonyl)phenyl)cyclopropyl)amino)methyl)piperidin-1-yl)propyl)benzamide TFA Salt]",82,,22,89,
,"O=C(NO)c1ccc(CCCN2CCC(CNC3CC3c3ccc(C(=O)N4CCCCC4)cc3)CC2)cc1 (stereo not drawn) [Example 54, N-hydroxy-4-(3-(4-(((2-(4-(piperidine-1-carbonyl)phenyl)cyclopropyl)amino)methyl)piperidin-1-yl)propyl)benzamide TFA Salt]",72,,23,65,
,"N#Cc1ccc(-c2ccc(C3CC3NCC3CCN(CCCc4ccc(C(=O)NO)cc4)CC3)cc2)cc1 (stereo not drawn) [Example 59, 4-(3-(4-(((2-(4′-cyano-[1,1′-biphenyl]-4-yl)cyclopropyl)amino)methyl)piperidin-1-yl)propyl)-N-hydroxybenzamide TFA Salt]",75,,32,76,
,"Cn1cc(-c2ccc(C3CC3NCC3CN(CCCc4ccc(C(=O)NO)cc4)C3)cc2)cn1 (stereo not drawn) [Example 63, N-hydroxy-4-(3-(3-(((2-(4-(1-methyl-1H-pyrazol-4-yl)phenyl)cyclopropyl)amino)methyl)azetidin-1-yl)propyl)benzamide TFA Salt]",69,191,31,86,
,"O=C(NO)c1ccc(CCC(=O)N2CCC(NC3CC3c3ccccc3)CC2)cc1 (stereo not drawn) [Example 83, N-hydroxy-4-(3-oxo-3-(4-((2-phenylcyclopropyl)amino)piperidin-1-yl)propyl)benzamide TFA Salt]",82,153,90,69,
,"O=C(NO)c1ccc(CS(=O)(=O)NCCN2CCC(CNC3CC3c3ccccc3)CC2)cc1 (stereo not drawn) [Example 86, N-hydroxy-4-((N-(2-(4-(((2-phenylcyclopropyl)amino)methyl)piperidin-1-yl)ethyl)sulfamoyl)methyl)benzamide TFA Salt]",58,676,18,71,
,"O=C(NO)c1cc2c(s1)CCN(C(=O)CCCNC1CC1c1ccc(F)cc1)C2 (stereo not drawn) [Example 105, 5-(4-((2-(4-fluorophenyl)cyclopropyl)amino)butanoyl)-N-hydroxy-4,5,6,7-tetrahydrothieno[3,2-c]pyridine-2-carboxamide TFA Salt]",72,13,,77,18
,"O=C(NO)c1ccc2c(c1)CN(C(=O)CCCNC1CC1c1ccc(F)cc1)CC2 (stereo not drawn) [Example 107, 2-(4-((2-(4-fluorophenyl)cyclopropyl)amino)butanoyl)-N-hydroxy-1,2,3,4-tetrahydroisoquinoline-7-carboxamide TFA Salt]",67,78,,83,85
,"O=C(NO)c1ccc(/C=C/C(=O)N2CCC(CNC3CC3c3ccccc3)CC2)cc1 (stereo not drawn) [Example 114, (E)-N-hydroxy-4-(3-oxo-3-(4-(((2-phenylcyclopropyl)amino)methyl)piperidin-1-yl)prop-1-en-1-yl)benzamide TFA Salt]",56,44,,83,68
,"O=C(NO)c1ccc(/C=C/C(=O)N2CCC(CN[C@@H]3C[C@H]3c3ccccc3)CC2)cc1 [Example 114A, N-hydroxy-4-((E)-3-oxo-3-(4-((((1R,2S)-2-phenylcyclopropyl)amino)methyl)piperidin-1-yl)prop-1-en-1-yl)benzamide TFA Salt]",62,14,,67,38
,"O=C(NO)c1ccc(/C=C/C(=O)N2CCC(CN[C@H]3C[C@@H]3c3ccccc3)CC2)cc1 [Example 114B, N-hydroxy-4-((E)-3-oxo-3-(4-((((1S,2R)-2-phenylcyclopropyl)amino)methyl)piperidin-1-yl)prop-1-en-1-yl)benzamide TFA Salt]",43,97,,73,33
,"Nc1ccccc1NC(=O)c1ccc(CCCn2cnc(CNC3CC3c3ccc(F)c(F)c3)c2)cc1 (stereo not drawn) [Example 135, N-(2-aminophenyl)-4-(3-(4-(((2-(3,4-difluorophenyl)cyclopropyl)amino)methyl)-1H-imidazol-1-yl)propyl)benzamide TFA Salt]",8,247,,2,> 10000
,"Nc1ccccc1NC(=O)c1cc2c(s1)CCN(C(=O)CNC1CC1c1ccc(F)cc1)C2 (stereo not drawn) [Example 151, N-(2-aminophenyl)-5-((2-(4-fluorophenyl)cyclopropyl)glycyl)-4,5,6,7-tetrahydrothieno[3,2-c]pyridine-2-carboxamide TFA Salt]",18,345,,30,> 10000
,"Nc1ccccc1NC(=O)c1ccc2c(c1)CN(C(=O)CNC1CC1c1ccc(F)cc1)CC2 (stereo not drawn) [Example 152, N-(2-aminophenyl)-2-(2-((2-(4-fluorophenyl)cyclopropyl)amino)acetyl)-1,2,3,4-tetrahydroisoquinoline-7-carboxamide TFA Salt]",31,566,,36,> 10000
,"Nc1ccccc1NC(=O)c1ccc(CNC(=O)CNC2CC2c2ccc(F)cc2)cc1 (stereo not drawn) [Example 155, N-(2-aminophenyl)-4-((2-((2-(4-fluorophenyl)cyclopropyl)amino)acetamido)methyl)benzamide TFA Salt]",34,42,,46,> 10000
,"Nc1ccccc1NC(=O)c1ccc(CNC(=O)N2CCC(CNC3CC3c3ccc(F)cc3)CC2)cc1 (stereo not drawn) [Example 158, N-(4-((2-aminophenyl)carbamoyl)benzyl)-4-(((2-(4-fluorophenyl)cyclopropyl)amino)methyl)piperidine-1-carboxamide TFA Salt]",< 5,58,,50,> 10000
